The first assay has as its target full length MPS1 (Homo sapiens (Human), UniProt P33981). The assay is described as follows: Measurement of inhibition of MPS1 kinase (Caliper EZ reader, fluorescent labelled peptide H236). The class given is biochemical.
Details: not given
full length MPS1, sequence (P33981 whole entry): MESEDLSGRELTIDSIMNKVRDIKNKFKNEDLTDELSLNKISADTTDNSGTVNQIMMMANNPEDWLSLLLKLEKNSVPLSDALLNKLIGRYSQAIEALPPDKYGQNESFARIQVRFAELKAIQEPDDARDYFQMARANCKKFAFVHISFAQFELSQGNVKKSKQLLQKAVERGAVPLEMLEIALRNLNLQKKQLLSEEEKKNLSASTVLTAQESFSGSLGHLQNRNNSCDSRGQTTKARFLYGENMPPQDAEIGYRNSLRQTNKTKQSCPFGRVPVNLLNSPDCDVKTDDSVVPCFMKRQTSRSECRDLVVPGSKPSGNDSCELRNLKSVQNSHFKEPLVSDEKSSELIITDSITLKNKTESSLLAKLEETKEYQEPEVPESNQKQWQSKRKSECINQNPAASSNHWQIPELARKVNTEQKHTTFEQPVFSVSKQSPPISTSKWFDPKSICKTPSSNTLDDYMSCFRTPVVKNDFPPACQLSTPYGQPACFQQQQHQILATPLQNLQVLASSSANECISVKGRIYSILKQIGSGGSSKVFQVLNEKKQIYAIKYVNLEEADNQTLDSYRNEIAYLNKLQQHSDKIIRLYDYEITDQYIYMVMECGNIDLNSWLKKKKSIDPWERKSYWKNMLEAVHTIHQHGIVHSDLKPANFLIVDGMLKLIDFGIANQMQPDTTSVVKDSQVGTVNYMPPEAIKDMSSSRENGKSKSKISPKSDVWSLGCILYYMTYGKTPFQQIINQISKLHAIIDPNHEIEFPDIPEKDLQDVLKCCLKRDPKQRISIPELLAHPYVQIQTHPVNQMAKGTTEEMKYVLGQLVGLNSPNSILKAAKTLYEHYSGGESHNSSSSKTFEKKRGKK
Broadly, the IC50 is the concentration that gives 50% inhibition. The compound `COCCn1cc(-c2ccc3cnc(Nc4ccc(-c5cnc(CO)n5C)cc4OC)cc3c2)cn1` [Example 25, (5-(3-Methoxy-4-((6-(1-(2-methoxyethyl)-1H-pyrazol-4-yl)isoquinolin-3-yl)amino)phenyl)-1-methyl-1H-imidazol-2-yl)methanol] came in with an IC50 of 2.8e-08 M.

Still in this assay, the particulars now being: full length MPS1 12.5 nM or 3 nM, peptide H236 5 μM, ATP 10 μM, 60 min at room temperature.
In turn, `COc1cc(-c2cnc(C)n2C)ccc1Nc1cc2cc(-c3cnn(CC(C)O)c3)ccc2cn1` (single isomer, unassigned) [Example 99, 1-(4-(3-((4-(1,2-dimethyl-1H-imidazol-5-yl)-2-methoxyphenyl)amino)isoquinolin-6-yl)-1H-pyrazol-1-yl)propan-2-ol] had an IC50 of 5e-09 M.

As for `COc1cc(F)ccc1Nc1cc2cc(-c3cnn(CC(C)(C)O)c3)ccc2cn1` [Example 54, 1-(4-(3-(4-Fluoro-2-methoxyphenylamino)isoquinolin-6-yl)-1H-pyrazol-1-yl)-2-methylpropan-2-ol], the IC50 is 6.5e-08 M.

Turning to `CCOc1cc(-c2nncn2C)ccc1Nc1cc2cc(-c3cnn(CC(C)(C)O)c3)ccc2cn1` [Example 48, 1-(4-(3-(2-Ethoxy-4-(4-methyl-4H-1,2,4-triazol-3-yl)phenylamino)isoquinolin-6-yl)-1H-pyrazol-1-yl)-2-methylpropan-2-ol], half-maximal inhibition (IC50) was put at 2e-09 M.

Take `COc1cc(C(=O)NCCO)ccc1Nc1cc2cc(-c3cnn(CC(C)(C)O)c3)ccc2cn1` [Example 61, 4-((6-(1-(2-Hydroxy-2-methylpropyl)-1H-pyrazol-4-yl)isoquinolin-3-yl)amino)-N-(2-hydroxyethyl)-3-methoxybenzamide]: the 50% inhibitory concentration (IC50) was found to be 2e-09 M.

`COc1cc(-c2cnc(C)n2C)ccc1Nc1cc2cc(-c3cnn(C)c3)ccc2cn1` [Example 23, N-(4-(1,2-dimethyl-1H-imidazol-5-yl)-2-methoxyphenyl)-6-(1-methyl-1H-pyrazol-4-yl)isoquinolin-3-amine] displayed an IC50 of 2e-09 M.

On to `COc1cc(-c2cnn(C)c2)ccc1Nc1cc2nc(C(=O)N(C)C)ccc2cn1` [Example 107, 7-(2-Methoxy-4-(1-methyl-1H-pyrazol-4-yl)phenylamino)-N,N-dimethyl-1,6-naphthyridine-2-carboxamide], for which the midpoint of inhibition, the IC50, lay at 4.11e-07 M.

In turn, `COc1cc(C(=O)N2CC3(CCOC3)C2)ccc1Nc1cc2cc(-c3cnn(CC(C)(C)O)c3)ccc2cn1` [Example 95, (4-(6-(1-(2-Hydroxy-2-methylpropyl)-1H-pyrazol-4-yl)isoquinolin-3-ylamino)-3-methoxyphenyl)(6-oxa-2-azaspiro[3,4]octan-2-yl)methanone] came in with an IC50 of 1e-09 M.

In turn, `COc1cc(-c2cnc(C)n2C)ccc1Nc1cc2cc(-c3cnn(C(C)C)c3)ccc2cn1` [Example 15, N-(4-(1,2-dimethyl-1H-imidazol-5-yl)-2-methoxyphenyl)-6-(1-isopropyl-1H-pyrazol-4-yl)isoquinolin-3-amine] gave a concentration for half-maximal inhibition (IC50) of 3e-09 M.

As for `COc1cc(-c2cnc(C)n2C)ccc1Nc1cc2cc(-c3ccncc3)ccc2cn1` [Example 7, N-(4-(1,2-dimethyl-1H-imidazol-5-yl)-2-methoxyphenyl)-6-(pyridin-4-yl)isoquinolin-3-amine], the IC50 is 1.45e-07 M.

For `COc1cc(S(=O)(=O)N(C)C)ccc1Nc1cc2cc(-c3cnn(CC(C)(C)O)c3)ccc2cn1` [Example 80, 4-((6-(1-(2-Hydroxy-2-methylpropyl)-1H-pyrazol-4-yl)isoquinolin-3-yl)amino)-3-methoxy-N,N-dimethylbenzenesulfonamide], half-maximal inhibition (IC50) was put at 3e-09 M.

Compound `COCCn1cc(-c2ccc3cnc(Nc4ccc(-c5cnc(C)n5CCOC)cc4OC)cc3c2)cn1` [Example 31, N-(2-Methoxy-4-(1-(2-methoxyethyl)-2-methyl-1H-imidazol-5-yl)phenyl)-6-(1-(2-methoxyethyl)-1H-pyrazol-4-yl)isoquinolin-3-amine] yielded an IC50 of 2e-09 M.

Regarding `COc1cc(-c2cnc(C)n2C)ccc1Nc1cc2cc(-c3cn(C)nc3C)ccc2cn1` [Example 19, N-(4-(1,2-dimethyl-1H-imidazol-5-yl)-2-methoxyphenyl)-6-(1,3-dimethyl-1H-pyrazol-4-yl)isoquinolin-3-amine], half-maximal inhibition (IC50) required 3e-08 M.

In turn, `COc1cc(C(=O)N2CCS(=O)(=O)CC2)ccc1Nc1cc2cc(-c3cnn(CC(C)(C)O)c3)ccc2cn1` [Example 65, (1,1-Dioxidothiomorpholino)(4-((6-(1-(2-hydroxy-2-methylpropyl)-1H-pyrazol-4-yl)isoquinolin-3-yl)amino)-3-methoxyphenyl)methanone] gave an IC50 of 2e-09 M.

In the case of `COc1cc(-c2cnc(C)n2CC(C)(C)O)ccc1Nc1cc2cc(-c3cnn(CC(C)(C)O)c3)ccc2cn1` [Example 69, 1-(5-(4-((6-(1-(2-Hydroxy-2-methylpropyl)-1H-pyrazol-4-yl)isoquinolin-3-yl)amino)-3-methoxy-phenyl)-2-methyl-1H-imidazol-1-yl)-2-methylpropan-2-ol], inhibition was half-maximal at 2e-09 M (IC50).

For the compound `COc1cc(C(=O)N2CC(OC)C2)ccc1Nc1cc2cc(-c3cnn(C)c3)ccc2cn1` [Example 24, (3-Methoxy-4-((6-(1-methyl-1H-pyrazol-4-yl)isoquinolin-3-yl)amino)phenyl)(3-methoxyazetidin-1-yl)methanone], the IC50 is 2e-09 M.

For the compound `COc1cc(-c2cnc(C)n2C)ccc1Nc1cc2cc(-c3cnn(C(C)C(C)(C)O)c3)ccc2cn1` (racemic) [Example 68, 3-(4-(3-((4-(1,2-Dimelhyl-1H-imidazol-5-yl)-2-methoxyphenyl)amino)isoquinolin-6-yl)-1H-pyrazol-1-yl)-2-methylbutan-2-ol], the IC50 turned out to be 6e-09 M.

Consider `COc1cc(C(=O)NC2CCN(C)CC2)ccc1Nc1cc2cc(-c3cnn(CC(C)(C)O)c3)ccc2cn1` [Example 67, 4-((6-(1-(2-Hydroxy-2-methylpropyl)-1H-pyrazol-4-yl)isoquinolin-3-yl)amino)-3-methoxy-N-(1-methylpiperidin-4-yl)benzamide], for which the IC50 came to 5e-09 M.

The compound `COc1cc(-c2cncn2C)ccc1Nc1cc2cc(-c3cnn(C)c3)ccc2cn1` [Example 21, N-(2-methoxy-4-(1-methyl-1H-imidazol-5-yl)phenyl)-6-(1-methyl-1H-pyrazol-4-yl)isoquinolin-3-amine] returned an IC50 of 3e-09 M.

On to `CC(C)(O)Cn1cc(-c2ccc3cnc(Nc4ccc(S(C)(=O)=O)cc4Cl)cc3c2)cn1` [Example 59, 1-(4-(3-((2-Chloro-4-(methylsulfonyl)phenyl)amino)isoquinolin-6-yl)-1H-pyrazol-1-yl)-2-methylpropan-2-ol], for which the midpoint of inhibition, the IC50, lay at 4e-09 M.

On to `COc1cc(-c2cnc(C)n2C)ccc1Nc1cc2cc(-c3cnn(CC(C)O)c3)ccc2cn1` (single isomer, unassigned) [Example 98, 1-(4-(3-((4-(1,2-dimethyl-1H-imidazol-5-yl)-2-methoxyphenyl)amino)isoquinolin-6-yl)-1H-pyrazol-1-yl)propan-2-ol], for which the IC50 was found to be 3e-09 M.

In turn, `COc1cc(-c2cnc(C)n2C)ccc1Nc1cc2cc(-c3cnn(C4CCN(C(=O)OC(C)(C)C)CC4)c3)ccc2cn1` [Example 4, tert-Butyl 4-(4-(3-((4-(1,2-dimethyl-1H-imidazol-5-yl)-2-methoxyphenyl)amino)isoquinolin-6-yl)-1H-pyrazol-1-yl)piperidine-1-carboxylate] yielded an IC50 of 1.1e-07 M.

The compound `COc1cc(-c2cnc(C)n2C)ccc1Nc1cc2cc(C3CC3)ccc2cn1` [Example 18, 6-Cyclopropyl-N-(4-(1,2-dimethyl-1H-imidazol-5-yl)-2-methoxyphenyl)isoquinolin-3-amine] came in with an IC50 of 1.44e-07 M.

`COc1cc(-c2cnc(C)n2C)ccc1Nc1cc2cc(-c3cnn(CC4(O)CCC4)c3)ccc2cn1` [Example 43, 1-((4-(3-((4-(1,2-Dimethyl-1H-imidazol-5-yl)-2-methoxyphenyl)amino)isoquinolin-6-yl)-1H-pyrazol-1-yl)methyl)cyclobutanol]: the IC50 was 3e-09 M.

Compound `COCCn1cc(-c2ccc3cnc(Nc4ccc(C(=O)N5CC(OC)C5)cc4OC)cc3c2)cn1` [Example 72, (3-Methoxy-4-((6-(1-(2-methoxyethyl)-1H-pyrazol-4-yl)isoquinolin-3-yl)amino)phenyl)(3-methoxyazetidin-1-yl)methanone] gave an IC50 of 3e-09 M.

Compound `COc1cc(-c2cnc(C)n2C)ccc1Nc1cc2cc(-c3cnc(C)n3C)ccc2cn1` [Example 5, 6-(1,2-Dimethyl-1H-imidazol-5-yl)-N-(4-(1,2-dimethyl-1H-imidazol-5-yl)-2-methoxyphenyl)-isoquinolin-3-amine] had an IC50 of 5e-09 M.

`COc1cc(-c2cnc(C)n2C)ccc1Nc1cc2nc(-c3cnn(CC4(O)CCC4)c3)ccc2cn1` [Example 106, 1-((4-(7-(4-(1,2-Dimethyl-1H-imidazol-5-yl)-2-methoxyphenylamino)-1,6-naphthyridin-2-yl)-1H-pyrazol-1-yl)methyl)cyclobutanol] registered an IC50 of 1e-09 M.

`COC1CN(C(=O)c2ccc(Nc3cc4cc(-c5cnn(CC(C)(C)O)c5)ccc4cn3)c(OC(F)F)c2)C1` [Example 91, (3-(Difluoromethoxy)-4-(6-(1-(2-hydroxy-2-methylpropyl)-1H-pyrazol-4-yl)isoquinolin-3-ylamino)phenyl)(3-methoxyazetidin-1-yl)methanone] had an IC50 of 2e-09 M.

For `COc1cc(-c2cnc(C)n2C)ccc1Nc1cc2cc(-c3cnn(C)c3C)ccc2cn1` [Example 20, N-(4-(1,2-dimethyl-1H-imidazol-5-yl)-2-methoxyphenyl)-6-(1,5-dimethyl-1H-pyrazol-4-yl)isoquinolin-3-amine], the IC50 was 2e-09 M.

The compound `Cc1ncc(-c2ccc(Nc3cc4cc(-c5cnn(CC(C)(C)O)c5)ccc4cn3)c(Cl)c2)n1C` [Example 42, 1-(4-(3-((2-Chloro-4-(1,2-dimethyl-1H-imidazol-5-yl)phenyl)amino)isoquinolin-6-yl)-1H-pyrazol-1-yl)-2-methylpropan-2-ol] had an IC50 of 3e-09 M.

The assay is the same for the next values; noted with them: unit printed as (M); full length MPS1 12.5 nM or 3 nM, peptide H236 5 μM, ATP 10 μM, 60 min at room temperature.
As to `COc1cc(-c2cnc(C)n2C)ccc1Nc1ncc2ccc(-c3cnn(C)c3)nc2n1` [Example 115, N-(4-(1,2-dimethyl-1H-imidazol-5-yl)-2-methoxyphenyl)-7-(1-methyl-1H-pyrazol-4-yl)pyrido[2,3-d]pyrimidin-2-amine], half-maximal inhibition (IC50) required 1.6e-08 M.

Values taken from US9334286B2, “Pharmacologically active compounds” (Cancer Research Technology Limited, priority 2012, dated 2016).
